Measurements reported in the supplement of paper PMC10307832.

Assays:
Assay in all cases: relative viability (nuclei count vs DMSO), 5 days (fraction); higher = more cells survive
NCI-H727 = system: NCI-H727
How it was run: (§1)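 Lung cancer cell lines were seeded in 1536-well plates and dosed by pin tool the next day, with either a single drug or a fixed anchor-drug dose combined with five library-drug doses (not always all listed) spaced in √10 steps. Five days later, one step fixed the cells and stained their nuclei (final 0.05% Triton X-100, 1% formaldehyde, 1 ug/ml Hoechst), and nuclei were counted on 4× images. Relative viability is the nuclei count in treated wells divided by the count in vehicle wells, and each value is the median of duplicate plates.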

LK-2 = system: LK-2
How it was run: as §1

NCI-H1792 = system: NCI-H1792
How it was run: as §1

EMC-BAC-2 = system: EMC-BAC-2
How it was run: as §1

LXF-289 = system: LXF-289
How it was run: as §1

COR-L23 = system: COR-L23
How it was run: as §1

NCI-H1793 = system: NCI-H1793
How it was run: as §1

A-427 = system: A-427
How it was run: as §1

NCI-H2009 = system: NCI-H2009
How it was run: as §1

HARA = system: HARA
How it was run: as §1

NCI-H3122 = system: NCI-H3122
How it was run: as §1

NCI-H2170 = system: NCI-H2170
How it was run: as §1

NCI-H596 = system: NCI-H596
How it was run: as §1

SW 900 = system: SW 900
How it was run: as §1

SK-MES-1 = system: SK-MES-1
How it was run: as §1

PC-3 [JPC-3] = system: PC-3 [JPC-3]
How it was run: as §1

ABC-1 = system: ABC-1
How it was run: as §1

SW 1573 = system: SW 1573
How it was run: as §1

NCI-H1993 = system: NCI-H1993
How it was run: as §1

SK-LU-1 = system: SK-LU-1
How it was run: as §1

NCI-H1944 = system: NCI-H1944
How it was run: as §1

HOP-62 = system: HOP-62
How it was run: as §1

**Q.** Which results are given for `NC(=O)Nc1cc(-c2cccc(F)c2)sc1C(=O)N[C@H]1CCCNC1` [AZD7762] + Nc1ncn([C@H]2C[C@H](O)[C@@H](CO)O2)c(=O)n1 [Decitabine] (partner 2 µM)?
**A.** relative viability (NCI-H727; first compound 0.01 µM): 1.01; relative viability (NCI-H727; first compound 0.03162 µM): 1.11; relative viability (NCI-H727; first compound 0.1 µM): 0.895; relative viability (NCI-H727; first compound 0.3162 µM): 0.959; relative viability (NCI-H727; first compound 1 µM): 0.536; relative viability (LK-2; first compound 0.01 µM): 0.476; relative viability (LK-2; first compound 0.03162 µM): 0.479; relative viability (LK-2; first compound 0.1 µM): 0.346; relative viability (LK-2; first compound 0.3162 µM): 0.346; relative viability (LK-2; first compound 1 µM): 0.25; relative viability (NCI-H1792; first compound 0.01 µM): 0.507; relative viability (NCI-H1792; first compound 0.03162 µM): 0.579; relative viability (NCI-H1792; first compound 0.1 µM): 0.662; relative viability (NCI-H1792; first compound 0.3162 µM): 0.582; relative viability (NCI-H1792; first compound 1 µM): 0.68; relative viability (EMC-BAC-2; first compound 0.01 µM): 1.03; relative viability (EMC-BAC-2; first compound 0.03162 µM): 1.01; relative viability (EMC-BAC-2; first compound 0.1 µM): 1.09; relative viability (EMC-BAC-2; first compound 0.3162 µM): 1.13; relative viability (EMC-BAC-2; first compound 1 µM): 0.933; relative viability (LXF-289; first compound 0.01 µM): 0.322; relative viability (LXF-289; first compound 0.03162 µM): 0.476; relative viability (LXF-289; first compound 0.1 µM): 0.486; relative viability (LXF-289; first compound 0.3162 µM): 0.619; relative viability (LXF-289; first compound 1 µM): 0.55; relative viability (COR-L23; first compound 0.01 µM): 0.485; relative viability (COR-L23; first compound 0.03162 µM): 0.535; relative viability (COR-L23; first compound 0.1 µM): 0.563; relative viability (COR-L23; first compound 0.3162 µM): 0.35; relative viability (COR-L23; first compound 1 µM): 0.166; relative viability (NCI-H1793; first compound 0.01 µM): 0.437; relative viability (NCI-H1793; first compound 0.03162 µM): 0.551; relative viability (NCI-H1793; first compound 0.1 µM): 0.689; relative viability (NCI-H1793; first compound 0.3162 µM): 1.28; relative viability (NCI-H1793; first compound 1 µM): 0.39; relative viability (A-427; first compound 0.01 µM): 0.582; relative viability (A-427; first compound 0.03162 µM): 0.648; relative viability (A-427; first compound 0.1 µM): 0.633; relative viability (A-427; first compound 0.3162 µM): 0.554; relative viability (A-427; first compound 1 µM): 0.314; relative viability (NCI-H2009; first compound 0.01 µM): 0.468; relative viability (NCI-H2009; first compound 0.03162 µM): 0.417; relative viability (NCI-H2009; first compound 0.1 µM): 0.373; relative viability (NCI-H2009; first compound 0.3162 µM): 0.378; relative viability (NCI-H2009; first compound 1 µM): 0.3; relative viability (HARA; first compound 0.01 µM): 0.633; relative viability (HARA; first compound 0.03162 µM): 0.507; relative viability (HARA; first compound 0.1 µM): 0.66; relative viability (HARA; first compound 0.3162 µM): 0.539; relative viability (HARA; first compound 1 µM): 0.211; relative viability (NCI-H3122; first compound 0.01 µM): 0.451; relative viability (NCI-H3122; first compound 0.03162 µM): 0.427; relative viability (NCI-H3122; first compound 0.1 µM): 0.442; relative viability (NCI-H3122; first compound 0.3162 µM): 0.415; relative viability (NCI-H3122; first compound 1 µM): 0.434; relative viability (NCI-H2170; first compound 0.01 µM): 0.465; relative viability (NCI-H2170; first compound 0.03162 µM): 0.544; relative viability (NCI-H2170; first compound 0.1 µM): 0.497; relative viability (NCI-H2170; first compound 0.3162 µM): 0.581; relative viability (NCI-H2170; first compound 1 µM): 0.436; relative viability (NCI-H596; first compound 0.01 µM): 0.978; relative viability (NCI-H596; first compound 0.03162 µM): 1.02; relative viability (NCI-H596; first compound 0.1 µM): 1.01; relative viability (NCI-H596; first compound 0.3162 µM): 1.1; relative viability (NCI-H596; first compound 1 µM): 1.03; relative viability (SW 900; first compound 0.01 µM): 0.402; relative viability (SW 900; first compound 0.03162 µM): 0.477; relative viability (SW 900; first compound 0.1 µM): 0.551; relative viability (SW 900; first compound 0.3162 µM): 0.481; relative viability (SW 900; first compound 1 µM): 0.451; relative viability (SK-MES-1; first compound 0.01 µM): 0.347; relative viability (SK-MES-1; first compound 0.03162 µM): 0.394; relative viability (SK-MES-1; first compound 0.1 µM): 0.342; relative viability (SK-MES-1; first compound 0.3162 µM): 0.289; relative viability (SK-MES-1; first compound 1 µM): 0.163; relative viability (PC-3 [JPC-3]; first compound 0.01 µM): 0.892; relative viability (PC-3 [JPC-3]; first compound 0.03162 µM): 0.869; relative viability (PC-3 [JPC-3]; first compound 0.1 µM): 0.949; relative viability (PC-3 [JPC-3]; first compound 0.3162 µM): 0.848; relative viability (PC-3 [JPC-3]; first compound 1 µM): 0.592; relative viability (ABC-1; first compound 0.01 µM): 1.07; relative viability (ABC-1; first compound 0.03162 µM): 1.11; relative viability (ABC-1; first compound 0.1 µM): 0.989; relative viability (ABC-1; first compound 0.3162 µM): 0.909; relative viability (ABC-1; first compound 1 µM): 0.617; relative viability (SW 1573; first compound 0.01 µM): 0.565; relative viability (SW 1573; first compound 0.03162 µM): 0.523; relative viability (SW 1573; first compound 0.1 µM): 0.482; relative viability (SW 1573; first compound 0.3162 µM): 0.324; relative viability (SW 1573; first compound 1 µM): 0.172; relative viability (NCI-H1993; first compound 0.01 µM): 0.626; relative viability (NCI-H1993; first compound 0.03162 µM): 0.606; relative viability (NCI-H1993; first compound 0.1 µM): 0.657; relative viability (NCI-H1993; first compound 0.3162 µM): 0.597; relative viability (NCI-H1993; first compound 1 µM): 0.638; relative viability (SK-LU-1; first compound 0.01 µM): 0.609; relative viability (SK-LU-1; first compound 0.03162 µM): 0.782; relative viability (SK-LU-1; first compound 0.1 µM): 0.49; relative viability (SK-LU-1; first compound 0.3162 µM): 0.281; relative viability (SK-LU-1; first compound 1 µM): 0.204; relative viability (NCI-H1944; first compound 0.01 µM): 0.46; relative viability (NCI-H1944; first compound 0.03162 µM): 0.494; relative viability (NCI-H1944; first compound 0.1 µM): 0.442; relative viability (NCI-H1944; first compound 0.3162 µM): 0.497; relative viability (NCI-H1944; first compound 1 µM): 0.44; relative viability (HOP-62; first compound 0.01 µM): 0.216; relative viability (HOP-62; first compound 0.03162 µM): 0.23; relative viability (HOP-62; first compound 0.1 µM): 0.248; relative viability (HOP-62; first compound 0.3162 µM): 0.284; relative viability (HOP-62; first compound 1 µM): 0.299
